Data taken from patent US12648559B2, “Topical mosquito control product with sunscreen” (Pouch Pac Innovations, LLC, priority 2016, dated 2026).

Tested on: Aedes aegypti mosquitoes
Experiment: Arm-in-cage testing of protective efficacy
Assay type: in vivo
Method: Additional testing was performed with the lotion of example 3 including sunflower oil, isopropyl alcohol, peppermint oil, citronella oil, zinc oxide, water and turmeric oil with the following protocols. Aedes aegypti mosquitoes were obtained from insecticide-susceptible reference strains held at the London School of Hygiene & Tropical Medicine, UK. All mosquitoes are reared and housed under optimal environmental conditions of 25° C.±2° C. and 80% Relative Humidity with a 12:12 hour photoperiod. Testing was carried out in a testing room maintained at […] with a 12:12 hour photoperiod. For each product, the same person carried out the arm-in-cage testing.
For each product test, three batches of 50 female mosquitoes were placed in cages inside the testing room. Before the start of each test a bare arm with gloved hand was inserted into the cage for 30 seconds to assess the biting readiness of the mosquitoes. […] The number of mosquitoes probing the untreated arm was counted at the end of the 30 second test.
Following the combined fitness/control test, the product was applied onto the right arm at the WHO standard rate of 1 ml per 600 cm 2 […] for DEET, and at a rate of 2 mg per cm′ for the Sunscreen Repellent. The arm was then inserted into the cage for 30 seconds and the number of mosquitoes probing on the arm counted and recorded. […]

CCN(CC)C(=O)c1cccc(C)c1 [8% DEET]
50% protective efficacy time (time after application with 50% protection): 6 h | complete (100%) protective efficacy time (time after application with 100% protection): 1 h
